Measured values from US20190336504A1, “TREATMENT AND PREVENTION OF CYTOKINE RELEASE SYNDROME USING A CHIMERIC ANTIGEN RECEPTOR IN COMBINATION WITH A KINASE INHIBITOR” (Novartis AG, priority 2016, published 2019).
Where two headings read alike, the source gives them in different places.

Experiments:
primary MCL cells [1] = type: in vivo, NOD-SCID gamma-chain deficient mice (NSG)
Procedure: This example describes the development of such a model generated by intravenously injecting NOD-SCID gamma-chain deficient mice (NSG) with primary MCL cells collected from a patient with relapsed MCL (FIG. 3A). NOD SCID Gamma-chain deficient mice were injected with 2×10^6 primary MCL cells intravenously. […] Mice were then followed up for clinical signs, T cell engraftment, tumor burden and survival.
NOD SCID Gamma-chain deficient mice were injected with 2×10^6 primary MCL cells intravenously. […] Mice were then followed up for clinical signs, T cell engraftment, tumor burden and survival. […] See, e.g., Ruella et al. Clin Cancer Res 2016; 10.1158/1078-0432.CCR-15-1527.

B cell neoplasms = type: in vivo, mice
From the text: For FIGS. 3C-3E, all graphs were representative of two independent experiments (5 mice per group). Student's t-test was used to compare two groups. Survival curves were compared using the log-rank test. Asterisks represent p-values (*=<0.05, **=<0.01, ***=<0.001, ****=<0.0001) and “ns” means “not significant” (p>0.05).
(§1) All graphs in FIGS. 4B-4F are representative of two independent experiments (5 mice per group). Student's t-test was used to compare two groups; in analysis where multiple groups were compared, one-way analysis of variance (ANOVA) was performed with Holm-Sidak correction for multiple comparisons. Survival curves were compared using the log-rank test. Asterisks represent p-values (*=<0.05, **=<0.01, ***=<0.001, ****=<0.0001) and “ns” means “not significant” (p>0.05).

primary MCL cells [2] = assay: Cytokine production of primary MCL cells incubated for 24 hours with ibrutinib; type: cell-based; conditions: FIG. 4F
Procedure: as §1

primary AML blasts = type: in vivo
Procedure: For the development of CRS preclinical models, NOD-SCID-γ chain−/− (NSG) transgenic for human interleukin-3, stem cell factor and granulocyte macrophage colony-stimulating factor (NSG-S) were used. These were purchased from the Stem Cell and Xenograft Core of the University of Pennsylvania (originally obtained from Jackson Laboratories). Schemas of the utilized xenograft models are discussed in detail in the relevant figures and the Results section herein. Cells were injected in 200 ul of phosphate-buffered saline at the indicated concentration into the tail veins.
Ruxolitinib was purchased from Selleckchem, dissolved in DMSO and diluted to the indicated concentrations. […] Blood. […] Blood. […] Blood. 2016.
See, e.g., Gill S, Tasian S K, Ruella M, et al. Preclinical targeting of human acute myeloid leukemia and myeloablation using chimeric antigen receptor-modified T cells. Blood. 2014; 123:2343-2354. In particular, NSG-S mice were engrafted with primary AML blasts (5×10^6) and bled after 2-4 weeks to confirm engraftment. Mice then were treated with high doses of CART123 1×10^6 by intravenous tail vein single injection and monitored with serial clinical examinations, weight recording and retro-orbital bleedings for leukemia burden assessment and cytokine analysis. […] (CART123 were injected on day 41 post AML injection in the experiment.)
The experiments in this Example investigated ruxolitinib as a modality to prevent or reduce CRS severity after CART123 in the AML xenograft model described herein. NSGS mice were engrafted with primary AML blasts (5×10^6) and bled after 2-4 weeks to confirm peripheral blood engraftment. NSGS mice bearing primary AML were treated with CART123 (1×10^6) by intravenous tail vein single injection along with ruxolitinib or vehicle control. The mice were randomized to receive different doses of ruxolitinib (30 mg/kg, 60 mg/kg or 90 mg/kg) or vehicle by oral gavage twice a day. Treatment started on the day of CART123 injection and continued for a week (FIG. 2A). Mice were then monitored with serial clinical examinations, weight recording, retro-orbital bleedings for leukemia burden assessment and cytokine analysis and followed for survival.

AML = conditions: summary statement

C=CC(=O)N1CCC[C@@H](n2nc(-c3ccc(Oc4ccccc4)cc3)c3c(N)ncnc32)C1 [ibrutinib, 1-[(3R)-3-[4-Amino-3-(4-phenoxyphenyl)-1H-pyrazolo[3,4-d]pyrimidin-1-yl]piperidin-1-yl]prop-2-en-1-one]
overall survival (OS) (primary MCL cells [1]; CART19 + ibrutinib 125 mg/Kg/day in drinking water vs CART19 alone): prolonged overall survival | CART19 expansion in the PB (primary MCL cells [1]; CART19 + ibrutinib vs CART19 alone): augmented | cytokines in the peripheral blood (IL-6, IFNg, TNFα, IL-2, GM-CSF) (primary MCL cells [1]; day 4, ibrutinib-treated mice): significantly reduced | T cell expansion (B cell neoplasms; CART19-treated mice, ibrutinib or vehicle treatment, FIG. 4D): augmented | CRS after a CD19 CAR therapy (B cell neoplasms; CD19 CAR therapy for B cell neoplasms, summary statement): improve or prevent CRS | serum cytokines involved in CRS (Luminex) (B cell neoplasms; mice treated with CART19+ibrutinib vs CART19, FIG. 4E): significant reduction | overall survival (B cell neoplasms; mice treated with CART19 plus ibrutinib (vs CART19 plus vehicle), FIG. 4B, log-rank test): significantly increased | cytokine production (primary MCL cells [2]): significant cytokine production in a dose-dependent manner

N#CC[C@H](C1CCCC1)n1cc(-c2ncnc3[nH]ccc23)cn1 [ruxolitinib, (3R)-3-cyclopentyl-3-[4-(7H-pyrrolo[2,3-d]pyrimidin-4-yl)pyrazol-1-yl]propanenitrile]
leukemia in peripheral blood of surviving mice (primary AML blasts; 70 days post AML injection, live human CD45 positive cells): all surviving mice had eradication of leukemia | anti-leukemic effect (primary AML blasts; all groups: CART123 + ruxolitinib 30, 60 or 90 mg/kg or vehicle): equivalent anti-leukemic effect | T cell expansion in the peripheral blood (primary AML blasts; ruxolitinib 60 mg/kg + CART123): blunted T cell expansion | leukemia burden (primary AML blasts; ruxolitinib 60 mg/kg + CART123): leukemia eradication | levels of inflammatory cytokines (primary AML blasts; ruxolitinib 60 mg/kg + CART123): reduced levels of inflammatory cytokines | weight loss (primary AML blasts; ruxolitinib 60 mg/kg + CART123): transient weight loss | survival (primary AML blasts; ruxolitinib 60 mg/kg + high dose CART123): long-term disease free survival | clinical illness (CRS) manifested by weight loss (primary AML blasts; ruxolitinib 60 mg/kg oral gavage twice a day for a week + CART123, vs CART123 alone or + 30 mg/kg): less severe clinical illness | clinical illness (CRS) manifested by weight loss (primary AML blasts; ruxolitinib 90 mg/kg oral gavage twice a day for a week + CART123, vs CART123 alone or + 30 mg/kg): less severe clinical illness | direct anti-tumor activity (primary AML blasts; ruxolitinib with CART123): no direct anti-tumor activity | effect on anti-tumor activity of CART123 (primary AML blasts; ruxolitinib with CART123): did not impair | cytokine release syndrome (CRS) after CART cell therapy (AML; CART cell therapy for hematological cancers, such as AML): ameliorate cytokine release syndrome (CRS) severity or prevent CRS | anti-tumor effect of the CART therapy (AML; combination with JAK-STAT kinase inhibitor): without significantly impairing
